Where two headings read alike, the source gives them in different places.

Experiment [1] relates to lymphoblastoid cells (EBV transformed lymphocytes). Put plainly: cells. The settings on record: for TR50 (thymidine ratio relative to ovarian cancer cells): LCL / OvCa. As to the method:
(§1) The inhibition of cell replication by steroid alkaloids is determined by the inhibition of the incorporation of ^3 H thymidine into DNA. Using this technique, it should be possible to monitor any preferential inhibition of uptake of ^3 H thymidine by cancer cells.
(§2) Cells were maintained as monolayers in RPM1-1640 tissue culture media (Grant Island Biological Co) buffered with N-2-hydroxy-ethylpiperazine-N-2-ethanesulphonic acid pH 7.5 and supplemented with 10% heat inactivated fetal calf serum (FCS): (i) a human ovarian cancer cell line (C180-135), (ii) HeLa cells, (iii) human fibroblasts, and (iv) as a cell suspension of lymphoblastoid cells (EBV transformed lymphocytes). Monolayers were trypsinized to form a cell suspension. […] Cell concentration was adjusted to 2×10^5 cells/ml, and 2×10^4 cells were added in replicates of 10 to the wells (1×10^5 /ml well) of HA microtitre plates (Millipore Corp., USA). The cells were preincubated at 37.5° C. for 7 hours prior to the addition of 50 μl of the cytotoxic drug followed by the addition of 50 μl 5 uCi/ml of ^3 H thymidine, in the same tissue culture media 21 hours later. Incubation was continued for a total of 24 hours, which includes the pre-incubation time.
(§3) Appropriate DMSO cytotoxicity studies were also conducted. Solasodine glycosides were supplied as a mixture (BEC), and as separate components, solamargine, solasonine, a mixture of di- and mono-glycosides and the aglycone solasodine. All cytotoxic drugs were further diluted with HIFCS/TCM before testing. 5×10^4 ovarian cancer cells (200 μl/chamber of a chamber of microscope slide (Lab Tek Miles Scientific) were used. Controls received 50 μl HIFCS/TCM and experimental chambers 50 μl of solasodine glycosides (BEC) 1.5-3.8 μM/L after 7 hrs preincubation, and incubated for a further 3 hrs. Similarly, the cells were treated with the aglycone solasodine 19.4-96.8 μM/L. The cells were fixed and examined by the Papanicolaou method.

The subject of a further experiment is HeLa cells. Briefly: cells. The protocol:
as §1, §2, §3

Another experiment relates to human fibroblasts. Briefly: cells. The settings on record: for TR50 (thymidine ratio relative to ovarian cancer cells): FB / OvCa. As to the method:
as §1, §2, §3

The next experiment relates to lymphoblastoid cells. Briefly: Solamargine cytotoxicity in presence and absence of carbohydrates, lymphoblastoid cells. The format is cell-based. The settings on record: Homo sapiens, Lymphoblastoid cell, LCL, solamargine 3.1 μM/L, read-out: Percentage Survival. As to the method:
A mixture of solasodine glycosides (BEC), of which the active compound is solamargine and from which the aglycone solasodine is derived was prepared for use in cytotoxicity assays as determined by the uptake of tritiated thymidine. Inhibition studies were carried out with lactose, lactosyl-albumin, galactose or rhamnose (Sigma Chemical Co., USA). All experimental replicates were related to their own controls. Total volume of replicates was 250 μl (carbohydrates added in 50 μl tissue culture media+10% fetal calf serum), and the cell concentrations were 8×10^4 /ml.

As for `C[C@@H]1CC[C@@]2(NC1)O[C@H]1C[C@H]3[C@@H]4CC=C5C[C@@H](O[C@@H]6O[C@H](CO)[C@@H](O[C@@H]7O[C@@H](C)[C@H](O)[C@@H](O)[C@H]7O)[C@H](O)[C@H]6O[C@@H]6O[C@@H](C)[C@H](O)[C@@H](O)[C@H]6O)CC[C@]5(C)[C@H]4CC[C@]3(C)[C@H]1[C@@H]2C` [Solamargine, solamargine], the viability at 11.5 µM in experiment [1] (Homo sapiens, Lymphoblastoid cell, read-out: Percentage Cell Survival) is 35 ± 4.2%; in the experiment on HeLa cells (Homo sapiens, HeLa, read-out: Percentage Cell Survival), 2.6 ± 0.5%; with human fibroblasts (Homo sapiens, Fibroblast, read-out: Percentage Cell Survival), 23 ± 1.7%. The “TR50 (thymidine ratio relative to ovarian cancer cells)” value in experiment [1] (listed as Solam) is on record as 2.5; in experiment [1] (listed as solamargine), “greater than 2”; with HeLa cells (HeLa / OvCa), 1.6; in the experiment with human fibroblasts (listed as Solam), 2.3; with human fibroblasts (listed as solamargine), “greater than 2”. Also, the IC50 worked out at 3.95 µM in experiment [1] (human gammaherpesvirus 4, LCL, read-out: LD50 (dose to inhibit 50% tritiated thymidine uptake)); 2.5 µM in the experiment with HeLa cells (Homo sapiens, HeLa, read-out: LD50 (dose to inhibit 50% tritiated thymidine uptake)); 3.65 µM with human fibroblasts (Homo sapiens, Fibroblast, read-out: LD50 (dose to inhibit 50% tritiated thymidine uptake)). In addition, the viability at 3.1 µM in the experiment on lymphoblastoid cells (1.1 μM/L galactose, *** p < 0.001) came out at 42%; in the experiment with lymphoblastoid cells (1.1 μM/L lactose, *** p < 0.001), 47%; in the experiment with lymphoblastoid cells (1.1 μM/L rhamnose), 36 ± 4.5%; in the experiment with lymphoblastoid cells (no carbohydrate), 34 ± 3%.

Values taken from patent US5958770A, “Glycoalkaloids” (priority 1990, dated 1999).
